US20140287923A1, “METHOD FOR ENHANCING CROP YIELDS BY APPLICATION OF TREHALOSE” (Stoller Enterprises, Inc., priority 2012, published 2014)

How the values were obtained:
Assay type in all cases: in vivo
Potato, cultivar Eva = test: Yield of Eva potato treated foliarly with trehalose 4 weeks before harvest; settings: for pounds per graded size #4 (>10 ounces): control 0.0; for pounds per graded size #1 (0 to 4 ounces): control 0.8; for pounds per graded size #2 (>4 ounces) / pounds per graded size #3 (>6 ounces): control 6.8; for pounds Total: control 14.4
[1] = test system: Field Corn, cultivar Asgrow 7371; test: Foliar trehalose on field corn yield, cultivar Asgrow 7371; settings: trehalose 100 grams per acre foliar, 4 and 5 weeks after V16 stage
Text: Field Corn, cultivar Asgrow 7371, was twice treated foliarly before harvest with an aqueous solution of trehalose at the rate of 100 grams of trehalose per acre, at 4 weeks after the V16 stage of growth, and once again foliarly at the same rate at 5 weeks after the V16 stage of growth.

Potatoes, cultivar Eva = test: Reducing sugar content of potato tubers after foliar trehalose, cultivar Eva; settings: for Reducing Sugar Content of Tubers (absorbance at 570 nm): 100 grams/acre foliar, n = 16
Procedure: Potatoes, cultivar Eva in Pennsylvania, were treated either 4 or 2 weeks before harvest with a foliar application of trehalose at the rate of 100 grams per acre. The potatoes were harvested and shipped to College Station, Texas for analysis of reducing sugars. […] (Table 4).

[2] = test system: Potatoes, cultivar Snowden; test: Reducing sugar content of potato tubers after foliar trehalose, cultivar Snowden; settings: 4 or 2 weeks before harvest, inversely proportional to the dose of trehalose
Procedure: Potatoes, cultivar Snowden in Wisconsin, were treated either 4 or 2 weeks before harvest with a foliar application of trehalose at the rate of 100 grams per acre. The potatoes were harvested and shipped to College Station, Tex. for analysis of reducing sugars.

Sugar Beets = test: Foliar trehalose on sugar beet yield and quality
Text: Sugar Beets were foliarly treated with Trehalose at the rate of 300 grams per acre in Yuma Colo.

[3] = test system: Field corn, Cultivar Dekalb C6805; test: Foliar trehalose on field corn yield, cultivar Dekalb C6805; settings: for Yield of field corn (bushels per acre): control 155; for Weight of 1,000 kernels (grams): control 261
Procedure: Field corn, Cultivar Dekalb C6805, was treated foliarly with an aqueous solution of trehalose at the rate of 100 grams per acre, either at the […] stage of growth or 3 weeks before the […] stage of growth, in southern Texas. Field corn yields were increased with this cultivar from 155 bushels per acre to an unprecedented 337 bushels per acre for this locale, characterized by hot, windy climate and poor soils and high levels of pests including disease and insects. Seed weights of the corn kernels were increased.

Sugar Cane = test: Trehalose on sugar per acre from sugar cane; settings: 4 weeks before harvest
Procedure: Sugar Cane, grown in southern Texas was treated 4 weeks before harvest with an aqueous solution of Trehalose at the rate of 450 grams per acre, gave an extra 897 pounds of sugar from sugar cane production.

winter wheat = test: Foliar trehalose on yield of winter wheat; settings: 100 g/a Foliar, 4 weeks before harvest; control 0%; highly significant
Procedure: Wheat, grown in Ontario Canada, was treated foliarly with an aqueous solution of trehalose at the rate of 100 grams per acre, 4 weeks before harvest.

[4] = 100 grams per acre foliar at the V16 stage of growth
[5] = 100 grams per acre foliar, 3 wk prior to V16 growth stage

OC[C@H]1O[C@H](O[C@H]2O[C@H](CO)[C@@H](O)[C@H](O)[C@H]2O)[C@H](O)[C@@H](O)[C@@H]1O [Trehalose, trehalose]
Potato yield (Potato, cultivar Eva; 100 grams per acre foliar): increased yields
pounds per graded size #4 (>10 ounces) (Potato, cultivar Eva; Trehalose 25 g foliar): 0.0 pounds
pounds per graded size #1 (0 to 4 ounces) (Potato, cultivar Eva; Trehalose 25 g foliar): 1.1 pounds
pounds per graded size #2 (>4 ounces) (Potato, cultivar Eva; Trehalose 25 g foliar): 7.2 pounds
pounds per graded size #3 (>6 ounces) (Potato, cultivar Eva; Trehalose 25 g foliar): 8.6 pounds
pounds Total (Potato, cultivar Eva; Trehalose 25 g foliar): 16.9 pounds
pounds per graded size #4 (>10 ounces) (Potato, cultivar Eva; Trehalose 50 g foliar): 0.0 pounds
pounds per graded size #1 (0 to 4 ounces) (Potato, cultivar Eva; Trehalose 50 g foliar): 0.9 pounds
pounds per graded size #2 (>4 ounces) (Potato, cultivar Eva; Trehalose 50 g foliar): 7.0 pounds
pounds per graded size #3 (>6 ounces) (Potato, cultivar Eva; Trehalose 50 g foliar): 8.3 pounds
pounds Total (Potato, cultivar Eva; Trehalose 50 g foliar): 16.2 pounds
pounds per graded size #4 (>10 ounces) (Potato, cultivar Eva; Trehalose 100 g foliar): 0.4 pounds
pounds per graded size #1 (0 to 4 ounces) (Potato, cultivar Eva; Trehalose 100 g foliar): 0.8 pounds
pounds per graded size #2 (>4 ounces) (Potato, cultivar Eva; Trehalose 100 g foliar): 7.4 pounds
pounds per graded size #3 (>6 ounces) (Potato, cultivar Eva; Trehalose 100 g foliar): 8.4 pounds
pounds Total (Potato, cultivar Eva; Trehalose 100 g foliar): 17.0 pounds
Yield increase by treatment of trehalose [1]: up to 125%
Yield of field corn (bushels per acre) ([1]; Cultivar 7371, control 103 bu/acre): 231 bu/acre
Weight of 1,000 kernels (grams) ([1]; Cultivar 7371, control 288 grams): 368 grams
Reducing sugars in the potato tubers (Potatoes, cultivar Eva; 100 grams per acre foliar, 4 weeks before harvest): decreased
Reducing Sugar Content of Tubers (absorbance at 570 nm) (Potatoes, cultivar Eva; 2 weeks before Harvest, control 0.200 ± 0.08): 0.211 ± 0.12 absorbance at 570 nm
Reducing Sugar Content of Tubers (absorbance at 570 nm) (Potatoes, cultivar Eva; 4 weeks before Harvest, control 0.217 ± 0.15): 0.125 ± 0.03 absorbance at 570 nm
Reducing sugar content of potato tubers [2]: decrease in reducing sugar content
Percent SLM (Sugar Beets; 300 g/a Foliar, 2 weeks before harvest, control 1.85): 1.22%
Percent Sugar (Sugar Beets; 300 g/a Foliar, 2 weeks before harvest, control 15.83%): 17.23%
Sugar Beet yield (tons per acre) (Sugar Beets; 300 g/a Foliar, 2 weeks before harvest, control 27.79): 28.4 tons per acre
Pounds of Sugar per acre (Sugar Beets; 300 g/a Foliar, 2 weeks before harvest, control 8797): 9770 Pounds of Sugar per acre
Extra sugar per acre transferred to the beets (Sugar Beets; 300 grams per acre foliar): nearly half an extra ton of sugar per acre
% SLM (Sugar Beets; 300 grams per acre, 2 weeks before harvest): decided reduction
Seed weights of the corn kernels ([3]; 100 grams per acre foliar): increased
Yield of field corn (bushels per acre) [3, 4]: 311 bushels per acre
Weight of 1,000 kernels (grams) [3, 4]: 286 grams
Yield of field corn (bushels per acre) [3, 5]: 327 bushels per acre
Weight of 1,000 kernels (grams) [3, 5]: 294 grams
Field corn yield ([3]; 100 grams per acre foliar, V16 or 3 weeks before V16, increased from 155): 337 bushels per acre
increase in lb of sugar per acre from sugar cane (Sugar Cane; 450 g/a Foliar, control 0): 897 lb
extra sugar from sugar cane production (Sugar Cane; 450 grams per acre): 897 pounds
increase in yield of winter wheat (winter wheat): 9.5%, highly significant
